ChEMBL document CHEMBL1134761, “A new concept for multidimensional selection of ligand conformations (MultiSelect) and multidimensional scoring (MultiScore) of protein-ligand binding affinities” (J Med Chem, 2001)

Columns and labels:
[1] = target: 72 kDa type IV collagenase (Homo sapiens, UniProt P08253); assay: Inhibitory constant against matrix metalloprotease-2
[2] = target: Stromelysin-1 (Homo sapiens, UniProt P08254); assay: Inhibitory constant against matrix metalloprotease-3
[3] = target: T1, Interstitial collagenase (Homo sapiens, UniProt P03956); assay: Inhibitory constant against matrix metalloprotease-1
T1 sequence (P03956 whole entry): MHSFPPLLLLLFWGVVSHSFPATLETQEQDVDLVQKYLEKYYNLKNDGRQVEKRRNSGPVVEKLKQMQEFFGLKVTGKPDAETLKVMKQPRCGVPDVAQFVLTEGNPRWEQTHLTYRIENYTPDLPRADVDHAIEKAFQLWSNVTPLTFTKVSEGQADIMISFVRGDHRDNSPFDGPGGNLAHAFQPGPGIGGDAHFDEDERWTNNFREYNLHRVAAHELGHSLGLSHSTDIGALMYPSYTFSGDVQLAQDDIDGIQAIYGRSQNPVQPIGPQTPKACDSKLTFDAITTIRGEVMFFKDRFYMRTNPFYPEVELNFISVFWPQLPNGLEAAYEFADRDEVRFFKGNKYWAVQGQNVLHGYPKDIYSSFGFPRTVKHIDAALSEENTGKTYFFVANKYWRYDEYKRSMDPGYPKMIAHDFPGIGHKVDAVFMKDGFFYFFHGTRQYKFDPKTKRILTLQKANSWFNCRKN

Sequence of Stromelysin-1 (P08254 whole entry): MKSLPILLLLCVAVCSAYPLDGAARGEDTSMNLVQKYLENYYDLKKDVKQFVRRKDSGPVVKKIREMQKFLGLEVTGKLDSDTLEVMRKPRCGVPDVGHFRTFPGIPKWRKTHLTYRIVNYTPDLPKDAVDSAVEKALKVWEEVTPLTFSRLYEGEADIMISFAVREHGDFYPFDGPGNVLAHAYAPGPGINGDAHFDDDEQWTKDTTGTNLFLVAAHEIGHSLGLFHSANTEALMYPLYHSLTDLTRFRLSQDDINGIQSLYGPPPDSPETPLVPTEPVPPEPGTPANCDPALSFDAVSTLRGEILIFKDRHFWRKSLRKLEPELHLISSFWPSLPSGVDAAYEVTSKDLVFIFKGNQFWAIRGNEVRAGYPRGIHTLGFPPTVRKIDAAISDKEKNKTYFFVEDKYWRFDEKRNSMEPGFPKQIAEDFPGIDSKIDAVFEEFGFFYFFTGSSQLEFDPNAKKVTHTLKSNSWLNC
Sequence of 72 kDa type IV collagenase (P08253 whole entry): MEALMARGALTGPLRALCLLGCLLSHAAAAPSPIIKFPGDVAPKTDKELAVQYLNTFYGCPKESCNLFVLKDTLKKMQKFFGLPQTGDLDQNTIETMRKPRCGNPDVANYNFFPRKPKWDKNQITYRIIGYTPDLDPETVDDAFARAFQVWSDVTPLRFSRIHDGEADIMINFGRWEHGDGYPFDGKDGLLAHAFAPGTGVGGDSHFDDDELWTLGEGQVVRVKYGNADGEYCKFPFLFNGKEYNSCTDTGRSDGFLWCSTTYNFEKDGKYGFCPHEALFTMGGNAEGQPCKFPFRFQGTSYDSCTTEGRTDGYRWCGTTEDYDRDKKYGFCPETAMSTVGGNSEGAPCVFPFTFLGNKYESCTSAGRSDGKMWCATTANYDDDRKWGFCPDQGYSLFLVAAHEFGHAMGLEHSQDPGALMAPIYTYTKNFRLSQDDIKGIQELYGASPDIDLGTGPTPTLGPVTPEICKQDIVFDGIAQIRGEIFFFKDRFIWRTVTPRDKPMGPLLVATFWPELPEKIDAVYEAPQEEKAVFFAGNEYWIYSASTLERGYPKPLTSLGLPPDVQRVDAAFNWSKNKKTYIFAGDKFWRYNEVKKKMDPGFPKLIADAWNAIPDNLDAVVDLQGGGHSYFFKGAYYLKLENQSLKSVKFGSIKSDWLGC

Row | Compound | Ki [1] [nM] | Ki [2] [nM] | Ki [3] [nM]
1 | O=C(C[C@@H](CCCc1ccc(Cl)cc1)C(=O)N[C@@H](CC1CCCCC1)C(=O)NCCC(=O)NCCNS(=O)(=O)N1CCOCC1)NO | 0.01 | 1.73 | 302
2 | Cc1ccc(CCC[C@H](CC(=O)NO)C(=O)N[C@@H](CC2CCCCC2)C(=O)NCCC(=O)NCCN2CCOCC2)cc1 | 0.01 | 6.26 | 455
3 | O=C(C[C@@H](CCCc1ccccc1)C(=O)N[C@@H](CC1CCCCC1)C(=O)NCCC(=O)NCCc1ccc(S(=O)(=O)O)cc1)NO | 0.59 | 81.5 | 942
4 | O=C(C[C@@H](CCCc1ccc(Cl)cc1)C(=O)N[C@@H](CC1CCCCC1)C(=O)NCCC(=O)NCCC(=O)N1CCOCC1)NO | 0.02 | 1.38 | 319
5 | Cc1ccc(CCC[C@H](CC(=O)NO)C(=O)N[C@@H](CC2CCCCC2)C(=O)NCCC(=O)NCCNS(=O)(=O)N2CCOCC2)cc1 | 0.03 | 2.75 | 385
6 | Cc1ccc(CCC[C@H](CC(=O)O)C(=O)N[C@@H](CC2CCCCC2)C(=O)NCCCCN2CCOCC2)cc1 |  | 1600 | 100000
7 | COC(=O)CCNC(=O)CCNC(=O)[C@H](CC1CCCCC1)NC(=O)[C@H](CCCc1ccc(Cl)cc1)CC(=O)NO | 0.01 | 0.96 | 135
8 | COc1ccc(CCC[C@H](CC(=O)O)C(=O)N[C@@H](CC2CCCCC2)C(=O)NCCc2ccc(S(N)(=O)=O)cc2)cc1 |  |  | 100000
9 | NS(=O)(=O)c1ccc(CCNC(=O)CCNC(=O)[C@H](CC2CCCCC2)NC(=O)[C@H](CCCc2ccc(Cl)cc2)CC(=O)NO)cc1 | 0.01 | 6.35 | 382
10 | Cc1ccc(CCC[C@H](CC(=O)NO)C(=O)N[C@@H](CC2CCCCC2)C(=O)NCCC(=O)NCCc2ccc(S(N)(=O)=O)cc2)cc1 | 0.02 | 2.98 | 329
11 | O=C(C[C@@H](CCCc1ccc(Cl)cc1)C(=O)N[C@@H](CC1CCCCC1)C(=O)NCCC(=O)NCCCCN1CCOCC1)NO | 0.03 | 2.39 | 313
12 | O=C(O)CCNC(=O)CCNC(=O)[C@H](CC1CCCCC1)NC(=O)[C@H](CCCc1ccc(Cl)cc1)CC(=O)NO | 0.01 | 0.8 | 193
13 | Cc1ccc(CCC[C@H](CP(=O)(O)O)C(=O)N[C@@H](CC2CCCCC2)C(=O)NCCc2ccccc2)cc1 |  |  | 17000
14 | Cc1ccc(CCC[C@H](CC(=O)NO)C(=O)N[C@@H](CC2CCCCC2)C(=O)NCCC(=O)NCCCCN(C)C)cc1 | 0.03 | 5.87 | 313
15 | CN(C)CCCCNC(=O)CCNC(=O)[C@H](CC1CCCCC1)NC(=O)[C@H](CCCc1ccc(Cl)cc1)CC(=O)NO | 0.05 | 22.2 | 1050
16 | Cc1ccc(CCC[C@H](CC(=O)NO)C(=O)N[C@@H](CC2CCCCC2)C(=O)NCCC(=O)NCCCCN2CCOCC2)cc1 | 0.02 | 2.61 | 642
17 | NC(=O)CCCNC(=O)[C@H](CC1CCCCC1)NC(=O)[C@H](CCCc1ccccc1)CC(=O)O |  | 1090 | 
